Assays:
PHD2 (residues 181-426) = PHD2 (residues 181-426) (Homo sapiens, UniProt Q9GZT9); assay: biochemical
HIF-1α in HeLa cells = assay: HIF-1α levels in HeLa cells by anti-HIF-1α immunoblotting; conditions: 50 or 250 µM, 6 h
PHD2_181–426 = biological target: T1, PHD2_181–426 (Homo sapiens, UniProt Q9GZT9); assay: Non-denaturing ESI-MS of covalent adduct formation with PHD2; assay type: binding; conditions: equimolar PHD2/Fe(II), 37 °C
T1 construct: PHD2_181–426 (hereafter PHD2); His6 (N, cleaved yes); made in house; host or cells: bacterial culture (2x TY, kanamycin, IPTG)
Experimental: The interaction of the ligands with PHD2_181–426 (hereafter PHD2) was examined by non-denaturing ESI-MS, using cone voltage variation to distinguish covalent and non-covalent complexes (non-covalent interactions are typically preserved at cone voltages of 50–80 V, and dissociated at 200 V).[16]–[18] Aldehydes 1 and 2 were incubated with equimolar PHD2 and Fe(II) (37 °C; 5 or 20 min). […] Without Fe(II), neither covalent nor non-covalent adducts were observed, implying covalent conjugation involves active site Fe(II) binding, with subsequent condensation.
Fig. S2 A) Schematic representation of the assigned species formed on addition of 1 or 2 to PHD2. The results support initial non-covalent binding of the inhibitors to PHD2.Fe(II) to form B. Subsequently, condensation of a lysine residue with the aldehyde forms the covalent adduct C. (B) and (C): Non-denaturing ESI-MS data support the covalent crosslinking of 1/2 with PHD2. Conditions: PHD2 (20 µM) was incubated (37 °C, 5 or 20 min) with equimolar FeSO4 and 1 or 2, and the resulting mixtures were analysed by ESI-MS (cone voltage: 50 V or 200 V). Labelled peaks correspond to: A: Unmodified PHD2.Fe. B: Non-covalent adduct PHD2.Fe.2. C: Covalent adduct PHD2.Fe.1/2.
Fig. S6 The α,β-unsaturated amide 3 can covalently modify PHD2. (A) Schematic representation of the adducts formed upon incubation of 3 with PHD2.
PHD2. PHD2 (20 µM) was incubated (37 °C, 5 min, 1 h or 2 h) with equimolar FeSO4 and 3 or 4 before analysis by ESI-MS (cone voltage: 50 V or 200 V). Labelled peaks correspond to the following assigned complexes: A: unmodified PHD2.Fe; B: the non-covalent PHD2.Fe.3 adduct; C: the covalent PHD2.Fe.3 adduct.
2. Experimental procedures
1.1.1 Non-denaturing mass spectrometry1
Apo PHD2 was desalted using a Bio-Spin 6 Column (Bio-Rad, Hemel Hempstead, UK) into 15 mM ammonium acetate (pH 7.5). The stock solution was diluted with the same buffer to a final concentration of 100 μM. FeSO4·7H2O was dissolved in 20 mM HCl at a concentration of 100 mM. This solution was then diluted with MilliQ purified water to give a final working concentration of 100 μM. The protein was mixed with the Fe(II) solution and the inhibitor solution to give final concentrations of 20 μM PHD2, 20 μM Fe(II), and 20 μM inhibitor. The resultant solution was incubated for the appropriate time (specified in the text) at 37 […]
(5 min or 20 min) at 37 °C. After incubation, the samples were immediately analysed by ESI-MS. Data were acquired using a Q-TOF mass spectrometer (Q-TOF micro, Micromass, Altrincham, UK) interfaced with a Nanomate (Advion Biosciences, Ithaca, NY, USA) with a chip voltage of 1.70 kV and a delivery pressure 0.5 psi (1 psi = […]). The sample cone voltage was typically 200 or 50 V with a source temperature of 40 °C and with an acquisition/scan time of 10s/1s. Sample acquisition was performed in positive ion mode in the range of 2000-4000 m/z. The pressure at the interface between the atmospheric source and the high vacuum region was fixed at 6.30 mbar. External instrument calibration was achieved using sodium iodide.

PHD2 = biological target: T2, PHD2 (Homo sapiens, UniProt Q9GZT9); assay: Peptide turnover assay (CODD hydroxylation) with MALDI-MS detection; assay type: biochemical; conditions: pre-incubation 0, 1, 2 and 4 h
T2 construct: PHD2_181–426 (hereafter PHD2); His6 (N, cleaved yes); made in house; host or cells: bacterial culture (2x TY, kanamycin, IPTG)

[1] = biological target: T3, PHD2 truncated at residue 410 (Homo sapiens, UniProt Q9GZT9); assay: Non-denaturing ESI-MS crosslinking, 410 truncate; assay type: binding; conditions: equimolar FeSO4 and compound, 3 h, 37 °C, 200 V
T3 construct: PHD2 constructs truncated at residues 402, 410, 414 and 418; Both the 418 (PHD2_181–418); His6 (N, cleaved yes); made in house; host or cells: bacterial culture (2x TY, kanamycin, IPTG)
Experimental: (§1) The site of crosslinking of 3 was investigated using protein variants. First, 3 was incubated with C-terminal truncated PHD2 (PHD2_181–402) and a loop deletion variant (deletion of residues 238–250, PHD2Δ). […] Thus, 3 was incubated with PHD2 constructs truncated at residues 402, 410, 414 and 418. […] Crosslinking experiments with PHD2 R411M implied that R411 is not directly involved in crosslinking (Fig. S11, ESI ^†).
(§2) Fig. S8 Temperature dependence of the rate of crosslinking of 3 with PHD2. PHD2 (20 µM) was incubated with equimolar Fe(II) and 3 in buffer (50 mM Tris, 150 mM NaCl, pH 7.5) at 4, 20 and 37 °C. The ratio of crosslinking after 1, 2, and 4 h was determined by ESI-MS under denaturing conditions (n = 2), error bars represent 1 standard deviation.
(§3) Fig. S9 Ratio of crosslinked PHD2.3 before evaluation of catalytic activity. Labelled peaks correspond to: (A): PHD2, […]
(§4) Fig. S10 Non-denaturing ESI-MS analysis of (a) PHD2 and its C-terminal truncations (b) PHD2181-418; (c) PHD2181-414;
(§5) (d) PHD2181-410; (e) PHD2181-402 in the presence of equimolar amounts of FeSO4 and 3 after 3 hours incubation at 37 °C in ammonium acetate (15 mM, pH 7.5) at a sample cone voltage of 200V. Peaks present: (A): PHD2.Fe; (B): PHD2181-

PHD2_181–418 = biological target: T4, PHD2_181–418 (Homo sapiens, UniProt Q9GZT9); assay: Non-denaturing ESI-MS crosslinking, 418 truncate; assay type: binding; conditions: equimolar FeSO4 and compound, 3 h, 37 °C, 200 V
T4 construct: Both the 418 (PHD2_181–418); His6 (N, cleaved yes); made in house; host or cells: bacterial culture (2x TY, kanamycin, IPTG)
Experimental: as §1, §2, §3, §4, §5

PHD3 = PHD3 (Homo sapiens, UniProt Q9H6Z9); assay: Denaturing MS covalent adduct formation with PHD3; assay type: binding; conditions: enzyme 20 μM, Fe(II) 30 μM, compound 30 μM, 37 °C, 4 h
PHD2_181–414 = biological target: T5, PHD2_181–414 (Homo sapiens, UniProt Q9GZT9); assay: Non-denaturing ESI-MS crosslinking, 414 truncate; assay type: binding; conditions: equimolar FeSO4 and compound, 3 h, 37 °C, 200 V
T5 construct: 414 (PHD2_181–414) truncated proteins; His6 (N, cleaved yes); made in house; host or cells: bacterial culture (2x TY, kanamycin, IPTG)
Experimental: as §1, §2, §3, §4, §5

T1 sequence (Q9GZT9 181-426): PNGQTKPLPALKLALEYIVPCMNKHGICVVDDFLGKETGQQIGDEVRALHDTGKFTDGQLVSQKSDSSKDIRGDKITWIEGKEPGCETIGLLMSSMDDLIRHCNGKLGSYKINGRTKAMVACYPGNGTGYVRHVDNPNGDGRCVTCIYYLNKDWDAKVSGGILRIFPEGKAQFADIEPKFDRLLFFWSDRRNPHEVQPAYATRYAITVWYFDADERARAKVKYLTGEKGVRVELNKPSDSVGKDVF
Sequence of PHD2 (residues 181-426) (Q9GZT9 181-426): as above
Sequence of PHD3 (Q9H6Z9 whole entry, the tested form may be a part): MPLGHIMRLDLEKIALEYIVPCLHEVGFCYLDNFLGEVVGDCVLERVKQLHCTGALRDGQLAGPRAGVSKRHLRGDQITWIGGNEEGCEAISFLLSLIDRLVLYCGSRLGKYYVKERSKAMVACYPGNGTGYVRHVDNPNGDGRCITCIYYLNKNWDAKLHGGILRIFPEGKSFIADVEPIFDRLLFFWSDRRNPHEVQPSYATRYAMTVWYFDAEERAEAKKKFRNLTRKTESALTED
T5 sequence (Q9GZT9 181-414): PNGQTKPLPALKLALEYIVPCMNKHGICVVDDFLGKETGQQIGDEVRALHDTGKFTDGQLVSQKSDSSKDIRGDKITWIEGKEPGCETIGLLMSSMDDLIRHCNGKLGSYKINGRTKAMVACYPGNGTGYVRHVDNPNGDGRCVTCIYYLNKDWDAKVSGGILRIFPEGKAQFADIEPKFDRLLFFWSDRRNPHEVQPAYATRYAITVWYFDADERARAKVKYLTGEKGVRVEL
T3 sequence (Q9GZT9 181-410): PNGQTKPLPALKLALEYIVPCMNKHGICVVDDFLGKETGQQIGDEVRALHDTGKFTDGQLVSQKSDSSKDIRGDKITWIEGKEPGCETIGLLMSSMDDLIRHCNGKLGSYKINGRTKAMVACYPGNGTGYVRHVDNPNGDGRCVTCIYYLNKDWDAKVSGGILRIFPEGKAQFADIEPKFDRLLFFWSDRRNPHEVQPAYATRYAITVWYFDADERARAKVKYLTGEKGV
T4 sequence (Q9GZT9 181-418): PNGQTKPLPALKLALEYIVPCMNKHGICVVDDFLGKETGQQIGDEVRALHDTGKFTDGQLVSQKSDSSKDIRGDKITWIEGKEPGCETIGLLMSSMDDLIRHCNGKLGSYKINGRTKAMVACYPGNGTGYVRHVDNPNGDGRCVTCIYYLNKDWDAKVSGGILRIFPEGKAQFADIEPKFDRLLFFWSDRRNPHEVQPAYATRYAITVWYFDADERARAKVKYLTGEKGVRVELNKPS
T2 sequence (Q9GZT9 181-426): as the sequence (Q9GZT9 181-426) above

IC50 (PHD2 (residues 181-426)): > 2 mM | conversion to the covalent adduct after 1 h (PHD2_181–426; 1 h): 1/3 | conversion to the covalent adduct after 2 h (PHD2_181–426; 2 h): 2/3 | crosslinking with 410 truncate [1]: Crosslinking did not occur | covalent modification of 418 truncate (PHD2_181–418): covalently modified | covalent reaction with PHD3 (PHD3): did not covalently react | covalent modification of 414 truncate (PHD2_181–414): covalently modified
Structure (SMILES): C=CC(=O)Nc1cccc(C(=O)NCC(=O)O)c1O [compound 3]
HIF-1α upregulation in HeLa cells (HIF-1α in HeLa cells): no upregulation of HIF-1α | activity of PHD2 pre-incubated with the compound (PHD2): remained as active as the non pre-incubated, uninhibited PHD2

— PMC6350621, “Small-molecules that covalently react with a human prolyl hydroxylase – towards activity modulation and substrate capture” (Chemical Communications (Cambridge, England), 2018)
